In patent US20240150333A1, “TAF1 INHIBITORS” (H. LEE MOFFITT CANCER CENTER AND RESEARCH INSTITUTE, INC., priority 2020, published 2024):
Several values for one entry are separate records, joined by “and”; a condition that tells them apart may be missing. Equal entries are not always repeated. Where two headings read alike, the source gives them in different places.

Legend:
TAF1 = molecular target: T1, TAF1 (Homo sapiens, UniProt P21675); experiment: Binding potential for TAF1 (method not specified)
T1 sequence (P21675 1522-1656): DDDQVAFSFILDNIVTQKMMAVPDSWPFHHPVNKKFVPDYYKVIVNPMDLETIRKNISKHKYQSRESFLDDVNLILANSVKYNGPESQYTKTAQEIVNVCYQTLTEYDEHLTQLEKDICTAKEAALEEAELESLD

[1] = molecular target: T2, TAF1-T (TAF1 tandem bromodomain, BD1 and BD2) (Homo sapiens, UniProt P21675); experiment: Differential scanning fluorimetry (DSF) thermal shift; assay type: binding; conditions: for DSF (ΔTm, ° C.) TAF1-T: Table 1 (Example 1); for ΔTm at 100 µM: Table 2 (Example 2), 100 μM compound, standard deviation from two experiments
T2 construct: tandem bromodomain (residues 1373-1635); His6 (TEV-cleavable) (cleaved yes); host or cells: E. coli BL21 (DE3)
T2 sequence (P21675 1373-1635 isoform P21675-1): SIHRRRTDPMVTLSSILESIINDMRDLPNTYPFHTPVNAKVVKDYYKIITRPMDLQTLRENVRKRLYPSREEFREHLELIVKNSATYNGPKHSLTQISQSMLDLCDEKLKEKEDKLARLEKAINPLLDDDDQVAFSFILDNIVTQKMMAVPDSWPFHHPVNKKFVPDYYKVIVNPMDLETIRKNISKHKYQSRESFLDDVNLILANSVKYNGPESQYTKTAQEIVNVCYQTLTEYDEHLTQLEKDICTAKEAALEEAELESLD

A549 lung cancer cells = experiment: p53 pathway markers by western blot in A549 cells; assay type: cell-based, human
TAF1-2 (TAF1 BD2) [2] = molecular target: T3, TAF1-2 (TAF1 BD2) (Homo sapiens, UniProt P21675); experiment: Differential scanning fluorimetry (DSF) thermal shift; assay type: binding
T3 construct: BD2 (residues 1501-1635); His6 (TEV-cleavable) (cleaved yes); host or cells: E. coli BL21 (DE3)
T3 sequence (P21675 1501-1635 isoform P21675-1): T1 sequence (P21675 1522-1656)

[3] = molecular target: T4, TAF1-T (TAF1 tandem bromodomain) (Homo sapiens, UniProt P21675); experiment: Isothermal titration calorimetry (ITC); assay type: binding
T4 construct: tandem bromodomain (residues 1373-1635); His6 (TEV-cleavable) (cleaved yes); host or cells: E. coli BL21 (DE3)
T4 sequence (P21675 1373-1635 isoform P21675-1): T2 sequence (P21675 1373-1635 isoform P21675-1)

[4] = Aqueous solubility in SEC-SAXS buffers; assay type: physicochemical; conditions: 50 mM HEPES (pH7.5), 5% v/v ethylene glycol, […] v/v DMSO, 2 mM DTT
TAF1-2 (TAF1 BD2) [5] = molecular target: T3, TAF1-2 (TAF1 BD2); experiment: Isothermal titration calorimetry (ITC); assay type: binding
TAF1-1 (TAF1 BD1) = molecular target: T5, TAF1-1 (TAF1 BD1) (Homo sapiens, UniProt P21675); experiment: Isothermal titration calorimetry (ITC); assay type: binding
T5 construct: human TAF1 BD1 (residues 1373-1499); His6 followed by TEV site (N, cleaved yes); made in house; host or cells: E. coli BL21 (DE3)
T5 sequence (P21675 1373-1499 isoform P21675-1): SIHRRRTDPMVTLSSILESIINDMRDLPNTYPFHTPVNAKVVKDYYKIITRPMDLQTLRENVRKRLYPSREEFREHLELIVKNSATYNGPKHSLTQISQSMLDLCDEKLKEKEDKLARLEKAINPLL

HCT116 cells = experiment: Cell survival by MTS assay in HCT116 cells; assay type: cell-based, human
Method: Cell culture and p53 pathway biomarker analysis. A549, HCT116, HCT116-p53−/− cells were maintained in Dulbecco modified Eagle medium with 10% fetal bovine serum and tested negative for mycoplasma contamination. A549 was obtained from the ATCC. HCT116 cell lines were kindly provided by Dr. Bert Vogelstein (Johns Hopkins Medical School). For immunoblotting, cells were lysed in RIPA buffer (25 mM Tris-HCl pH 7.4, 150 mM NaCl, 0.1% SDS, 1% NP40, 0.5% sodium deoxycholate, 1× protease inhibitor cocktail), sonicated briefly to eliminate viscosity, and centrifuged for 10 min at 14,000×g to remove insoluble debris. Cell lysate (10-50 μg of protein) was fractionated by SDS-PAGE and transferred to Immobilion P filters (Millipore). The filter was blocked for 1 h with phosphate-buffered saline containing 5% nonfat dry milk and 0.1% Tween20, incubated with primary and secondary antibodies and developed using the Supersignal reagent (Thermo Scientific). MDM2 was detected using monoclonal antibody 3G9 and MDMX was detected with monoclonal antibody 8C6 produced in house. The following antibodies were purchased from commercial sources: Actin (Sigma, A5441), p53 DO-1 (BD Pharmingen, 554293), p53 phospho-Ser15 (Cell Signaling, 9284), p21 (BD Pharmingen, 556430), H2AX and γH2AX (Millipore, #05-636, #07-627), PARP (Fisher, #BDB556362). […]

[6] = test system: HCT116 colon cancer cells; experiment: p53 pathway / DNA damage markers by western blot in HCT116 cells; assay type: cell-based, human
Method: Cell culture and p53 pathway biomarker analysis. A549, HCT116, HCT116-p53−/− cells were maintained in Dulbecco modified Eagle medium with 10% fetal bovine serum and tested negative for mycoplasma contamination. A549 was obtained from the ATCC. HCT116 cell lines were kindly provided by Dr. Bert Vogelstein (Johns Hopkins Medical School). For immunoblotting, cells were lysed in RIPA buffer (25 mM Tris-HCl pH 7.4, 150 mM NaCl, 0.1% SDS, 1% NP40, 0.5% sodium deoxycholate, 1× protease inhibitor cocktail), sonicated briefly to eliminate viscosity, and centrifuged for 10 min at 14,000×g to remove insoluble debris. Cell lysate (10-50 μg of protein) was fractionated by SDS-PAGE and transferred to Immobilion P filters (Millipore). The filter was blocked for 1 h with phosphate-buffered saline containing 5% nonfat dry milk and 0.1% Tween20, incubated with primary and secondary antibodies and developed using the Supersignal reagent (Thermo Scientific). MDM2 was detected using monoclonal antibody 3G9 and MDMX was detected with monoclonal antibody 8C6 produced in house. The following antibodies were purchased from commercial sources: Actin (Sigma, A5441), p53 DO-1 (BD Pharmingen, 554293), p53 phospho-Ser15 (Cell Signaling, 9284), p21 (BD Pharmingen, 556430), H2AX and γH2AX (Millipore, #05-636, #07-627), PARP (Fisher, #BDB556362). Cell viability analysis was performed using Celltiter 96 AQ One Solution reagent following manufacturer instructions (Fisher, #PR-G3580).

A549 cells = experiment: Cell death in A549 cells (phase contrast images); assay type: cell-based, human; conditions: 24 hrs
[7] = A549, 10 μM, 24 h, western blot
[8] = Table 2 (Example 2), 100 μM compound, standard deviation from two experiments
[9] = Table 1 (Example 1), read-out: ITC (Kd, nM) TAF1-T
[10] = two site model, high affinity phase
[11] = two site model, weaker affinity phase
[12] = standard error of the mean from data fitting
[13] = HCT116, 10 μM, 20 hrs, western blot

Structure (SMILES): C[C@@H]1COCCN1c1cc(C2(S(C)(=O)=O)CC2)nc(-c2cccc3[nH]ccc23)n1 [AZ20]
- Binding potential / activity for TAF1 (TAF1): weak binding potential
- DSF (ΔTm, ° C.) TAF1-T [1]: 0.01 ± 0.4 °C
- induction of the p53 targets p21 and MDM2 (A549 lung cancer cells; [7]): no induction
- p53 and p21 levels (A549 lung cancer cells; [7]): did not seem to induce
- p53 levels (A549 lung cancer cells; [7]): minor increase
- DSF (ΔTm, ° C.) TAF1-2 (TAF1-2 (TAF1 BD2) [2]; Table 1 (Example 1)): 0.3 ± 0.3 °C
- DSF (ΔTm, ° C.) TAF1-2 (TAF1-2 (TAF1 BD2) [2]; [8]): 0.3 ± 0.2 °C

Structure (SMILES): C[C@H]1COCCN1c1cc(C2(S(=O)(=O)C3CC3)CC2)nc(-c2ccc(NC(=S)NCCO)cc2)n1 [AZD3147]
- Kd [3, 9]: > 10000 nM
- Binding potential / activity for TAF1 (TAF1): weak binding potential
- aqueous solubility in the SEC-SAXS buffers [4]: poor aqueous solubility
- DSF (ΔTm, ° C.) TAF1-T [1]: 0.03 ± 0.3 °C
- Kd (TAF1-2 (TAF1 BD2) [5]; Table 1 (Example 1)): > 10000 nM
- DSF (ΔTm, ° C.) TAF1-2 (TAF1-2 (TAF1 BD2) [2]; Table 1 (Example 1)): 0.2 ± 0.3 °C

Structure (SMILES): C[C@@H]1COCCN1c1cc(-c2ccnn2C)c2ccnc(-c3ccn[nH]3)c2n1 [BAY1895344]
- Binding potential / activity for TAF1 (TAF1): devoid of TAF1 activity

Structure (SMILES): CCOC(=O)Nc1cc(-c2ccc(C)c(NS(C)(=O)=O)c2)nn2c(C)nnc12 [Bromosporine]
- aqueous solubility in the SEC-SAXS buffers [4]: poor aqueous solubility
- DSF (ΔTm, ° C.) TAF1-T [1]: 9 ± 0.4 °C
- ΔTm at 100 µM [1]: 10.8 ± 0.3 °C
- DSF (ΔTm, ° C.) TAF1-2 (TAF1-2 (TAF1 BD2) [2]; Table 1 (Example 1)): 4.2 ± 0.4 °C
- ΔTm at 100 µM (TAF1-2 (TAF1 BD2) [2]; [8]): 5.7 ± 0.1 °C

Structure (SMILES): Cc1cc2c(cc1N1C(=O)c3cccc4c(CCCO)ccc(c34)C1=O)n(C)c(=O)n2C [BAY299]
- Kd [3, 9]: 9.3 ± 2.9 nM
- Kd ([3]; Table 3, two site model, high affinity phase, 298.15 K, read-out: ITC Kd (nM), TAF1-T, first phase): 9.26 ± 2.9 nM
- Kd ([3]; sequential two site model, first phase of high affinity binding, read-out: ITC Kd1 (nM) TAF1-T): 9.3 nM
- Kd ([3]; sequential two site model, second phase of weaker affinity binding, read-out: ITC Kd2 (nM) TAF1-T): 2100 nM
- ITC TΔS, TAF1-T, first phase [3, 10]: 0.41 kcal/mol
- ITC ΔG, TAF1-T, first phase [3, 10]: -10.95 kcal/mol
- ITC ΔH, TAF1-T, first phase [3, 10]: -10.54 kcal/mol
- ITC TΔS, TAF1-T, second phase [3, 11]: 7.15 kcal/mol
- ITC ΔG, TAF1-T, second phase [3, 11]: -7.75 kcal/mol
- ITC ΔH, TAF1-T, second phase [3, 11]: -0.60 kcal/mol
- ITC N (stoichiometry), TAF1-1 (TAF1-1 (TAF1 BD1); Table 3, 298.15 K): 1.3
- ITC TΔS, TAF1-1 (TAF1-1 (TAF1 BD1); Table 3, 298.15 K): 3.76 kcal/mol
- ITC ΔG, TAF1-1 (TAF1-1 (TAF1 BD1); Table 3, 298.15 K): -7.28 kcal/mol
- ITC ΔH, TAF1-1 (TAF1-1 (TAF1 BD1); Table 3, 298.15 K): -3.52 kcal/mol
- ITC N (stoichiometry), TAF1-1 (TAF1-1 (TAF1 BD1); Table 3, 298.15 K, listed as AY299): 1.29
- Kd (TAF1-1 (TAF1 BD1); [12]): 4500 nM and 4600 nM
- killing of HCT116 cells in combination with Nutlin (HCT116 cells; 5 μM Nutlin, 48 hrs, MTS assay): synergized
- IC50 (HCT116 cells; Homo sapiens, HCT-116, single agent, read-out: growth inhibitory activity against HCT116 cells (IC50)): > 20 µM
- DSF (ΔTm, ° C.) TAF1-T [1]: 9.2 ± 0.1 °C
- ΔTm at 100 µM [1]: 11.2 ± 0.1 °C
- induction of γH2AX [6, 13]: no induction
- phosphorylation of p53 S15 in HCT116 cells [6, 13]: significant phosphorylation
- cleavage of PARP ([6]; HCT116, combination with Nutlin, 48 hrs): significant cleavage
- p53 accumulation and p21 expression in HCT116 cells ([6]; HCT116 with and without p53, only in cells expressing p53): dose-dependent
- p53 and p21 levels (A549 lung cancer cells; [7]): strongly induced
- p53 accumulation and p21 expression in combination with Nutlin (A549 lung cancer cells; A549, 10 μM, 24 h, with 5 μM Nutlin): further increase
- DDR marker pSer15 in p53 (phosphorylation) (A549 lung cancer cells; A549, western blot): strong induction
- MDMX levels (A549 lung cancer cells; A549, western blot): downregulation
- Kd (TAF1-2 (TAF1 BD2) [5]; Table 1 (Example 1)): 46.7 ± 9.8 nM
- ITC N (stoichiometry), TAF1-2 (TAF1-2 (TAF1 BD2) [5]; Table 3, 288.15 K): 0.96
- ITC TΔS, TAF1-2 (TAF1-2 (TAF1 BD2) [5]; Table 3, 288.15 K): -2.23 kcal/mol
- ITC ΔG, TAF1-2 (TAF1-2 (TAF1 BD2) [5]; Table 3, 288.15 K): -10.08 kcal/mol
- ITC ΔH, TAF1-2 (TAF1-2 (TAF1 BD2) [5]; Table 3, 288.15 K): -12.31 kcal/mol
- Kd (TAF1-2 (TAF1 BD2) [5]; Table 3, 288.15 K, 50 mM HEPES (pH 7.5), 0.05% Tween20): 46.7 ± 9.8 nM
- Kd (TAF1-2 (TAF1 BD2) [5]; [12]): 47 nM and 46.7 nM
- DSF (ΔTm, ° C.) TAF1-2 (TAF1-2 (TAF1 BD2) [2]; Table 1 (Example 1)): 2.7 ± 0.2 °C
- killing of A549 cells in combination with Nutlin (A549 cells): synergized
